Experimental data as given in the supplement of paper PMC4862054.

What follows are compounds tested on HCC1599 (assay: normalised response (% of control), CellTox Green; higher = less cell death (100 = DMSO, 0 = benzethonium chloride kill control)). Conditions: incubation time: 72 h.
Outline: (§1)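 Two readouts were taken after 72 h: CellTox Green fluorescence (485/520 nm) first, then CellTiter-Glo luminescence after 10 min at room temperature. Breast cancer cell lines had been seeded as 20 µl suspension into 384-well plates holding compound at 5 concentrations in 10-fold steps across a compound-specific 10,000-fold range. Each value is a normalised signal at a single concentration, with plates scaled to 0.1 % DMSO (100) and a positive kill control (0).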

| Compound | normalised response |
| --- | --- |
| O=C(O)C(=O)O.[NH-][C@@H]1CCCC[C@H]1[NH-].[Pt+2] [Oxaliplatin] (10000 nM) | 98.3% |

Each compound was assayed on HCC1937 in the same assay as above. Conditions: incubation time: 72 h.
Outline: as §1

| Compound | normalised response |
| --- | --- |
| CCN(CC)CCCC(C)Nc1c2ccc(Cl)cc2nc2ccc(OC)cc12 (stereo not drawn) [Mepacrine] (500 nM) | 111% |
| C=CC(=O)Nc1cc2c(Nc3ccc(F)c(Cl)c3)ncnc2cc1OCCCN1CCOCC1 [Canertinib] (100 nM) | 108% |
| Cc1ccc(-c2cc(C(F)(F)F)nn2-c2ccc(S(N)(=O)=O)cc2)cc1 [Celecoxib] (100 nM) | 106% |
| C=CCc1cccc(/C=N/NC(=O)CN2CCN(Cc3ccccc3)CC2)c1O [PAC-1] (100 nM) | 105% |
| O=C(O)C(=O)O.[NH-][C@@H]1CCCC[C@H]1[NH-].[Pt+2] [Oxaliplatin] (10000 nM) | 92.8% |

Each compound was assayed on HDQ-P1 in the same assay as above. Conditions: incubation time: 72 h.
Outline: as §1

| Compound | normalised response |
| --- | --- |
| CCN(CC)CCCC(C)Nc1c2ccc(Cl)cc2nc2ccc(OC)cc12 (stereo not drawn) [Mepacrine] (500 nM) | 85.1% |
| C=CC(=O)Nc1cc2c(Nc3ccc(F)c(Cl)c3)ncnc2cc1OCCCN1CCOCC1 [Canertinib] (100 nM) | 51.8% |
| Cc1ccc(-c2cc(C(F)(F)F)nn2-c2ccc(S(N)(=O)=O)cc2)cc1 [Celecoxib] (100 nM) | 101% |
| C=CCc1cccc(/C=N/NC(=O)CN2CCN(Cc3ccccc3)CC2)c1O [PAC-1] (100 nM) | 100% |

The compounds below were run on Hs578T in the same assay as above. Conditions: incubation time: 72 h.
Outline: as §1

| Compound | normalised response |
| --- | --- |
| CCN(CC)CCCC(C)Nc1c2ccc(Cl)cc2nc2ccc(OC)cc12 (stereo not drawn) [Mepacrine] (500 nM) | 63.5% |
| C=CC(=O)Nc1cc2c(Nc3ccc(F)c(Cl)c3)ncnc2cc1OCCCN1CCOCC1 [Canertinib] (100 nM) | 109% |
| Cc1ccc(-c2cc(C(F)(F)F)nn2-c2ccc(S(N)(=O)=O)cc2)cc1 [Celecoxib] (100 nM) | 96.8% |
| C=CCc1cccc(/C=N/NC(=O)CN2CCN(Cc3ccccc3)CC2)c1O [PAC-1] (100 nM) | 84.3% |
| O=C(O)C(=O)O.[NH-][C@@H]1CCCC[C@H]1[NH-].[Pt+2] [Oxaliplatin] (10000 nM) | 107% |

These compounds were tested on MCF-10A in the same assay as above. Conditions: incubation time: 72 h.
Outline: as §1

| Compound | normalised response |
| --- | --- |
| CCN(CC)CCCC(C)Nc1c2ccc(Cl)cc2nc2ccc(OC)cc12 (stereo not drawn) [Mepacrine] (500 nM) | 85.1% |
| C=CC(=O)Nc1cc2c(Nc3ccc(F)c(Cl)c3)ncnc2cc1OCCCN1CCOCC1 [Canertinib] (100 nM) | 106% |
| Cc1ccc(-c2cc(C(F)(F)F)nn2-c2ccc(S(N)(=O)=O)cc2)cc1 [Celecoxib] (100 nM) | 102% |
| C=CCc1cccc(/C=N/NC(=O)CN2CCN(Cc3ccccc3)CC2)c1O [PAC-1] (100 nM) | 75.2% |

Each compound was assayed on MDA-MB-231 in the same assay as above. Conditions: incubation time: 72 h.
Outline: as §1

| Compound | normalised response |
| --- | --- |
| CCN(CC)CCCC(C)Nc1c2ccc(Cl)cc2nc2ccc(OC)cc12 (stereo not drawn) [Mepacrine] (500 nM) | 99.1% |
| C=CC(=O)Nc1cc2c(Nc3ccc(F)c(Cl)c3)ncnc2cc1OCCCN1CCOCC1 [Canertinib] (100 nM) | 107% |
| Cc1ccc(-c2cc(C(F)(F)F)nn2-c2ccc(S(N)(=O)=O)cc2)cc1 [Celecoxib] (100 nM) | 93.2% |
| C=CCc1cccc(/C=N/NC(=O)CN2CCN(Cc3ccccc3)CC2)c1O [PAC-1] (100 nM) | 116% |
| O=C(O)C(=O)O.[NH-][C@@H]1CCCC[C@H]1[NH-].[Pt+2] [Oxaliplatin] (10000 nM) | 93.5% |

Each compound was assayed on MDA-MB-436 in the same assay as above. Conditions: incubation time: 72 h.
Outline: as §1

| Compound | normalised response |
| --- | --- |
| CCN(CC)CCCC(C)Nc1c2ccc(Cl)cc2nc2ccc(OC)cc12 (stereo not drawn) [Mepacrine] (500 nM) | 82.7% |
| C=CC(=O)Nc1cc2c(Nc3ccc(F)c(Cl)c3)ncnc2cc1OCCCN1CCOCC1 [Canertinib] (100 nM) | 107% |
| Cc1ccc(-c2cc(C(F)(F)F)nn2-c2ccc(S(N)(=O)=O)cc2)cc1 [Celecoxib] (100 nM) | 71.4% |
| C=CCc1cccc(/C=N/NC(=O)CN2CCN(Cc3ccccc3)CC2)c1O [PAC-1] (100 nM) | 83.5% |
| O=C(O)C(=O)O.[NH-][C@@H]1CCCC[C@H]1[NH-].[Pt+2] [Oxaliplatin] (10000 nM) | 62% |

These compounds were tested on MDA-MB-453 in the same assay as above. Conditions: incubation time: 72 h.
Outline: as §1

| Compound | normalised response |
| --- | --- |
| CCN(CC)CCCC(C)Nc1c2ccc(Cl)cc2nc2ccc(OC)cc12 (stereo not drawn) [Mepacrine] (500 nM) | 104% |
| C=CC(=O)Nc1cc2c(Nc3ccc(F)c(Cl)c3)ncnc2cc1OCCCN1CCOCC1 [Canertinib] (100 nM) | 102% |
| Cc1ccc(-c2cc(C(F)(F)F)nn2-c2ccc(S(N)(=O)=O)cc2)cc1 [Celecoxib] (100 nM) | 104% |
| C=CCc1cccc(/C=N/NC(=O)CN2CCN(Cc3ccccc3)CC2)c1O [PAC-1] (100 nM) | 107% |
| O=C(O)C(=O)O.[NH-][C@@H]1CCCC[C@H]1[NH-].[Pt+2] [Oxaliplatin] (10000 nM) | 98.6% |

The compounds below were run on MDA-MB-468 in the same assay as above. Conditions: incubation time: 72 h.
Outline: as §1

| Compound | normalised response |
| --- | --- |
| CCN(CC)CCCC(C)Nc1c2ccc(Cl)cc2nc2ccc(OC)cc12 (stereo not drawn) [Mepacrine] (500 nM) | 109% |
| C=CC(=O)Nc1cc2c(Nc3ccc(F)c(Cl)c3)ncnc2cc1OCCCN1CCOCC1 [Canertinib] (100 nM) | 136% |
| Cc1ccc(-c2cc(C(F)(F)F)nn2-c2ccc(S(N)(=O)=O)cc2)cc1 [Celecoxib] (100 nM) | 89.2% |
| C=CCc1cccc(/C=N/NC(=O)CN2CCN(Cc3ccccc3)CC2)c1O [PAC-1] (100 nM) | 79.1% |
| O=C(O)C(=O)O.[NH-][C@@H]1CCCC[C@H]1[NH-].[Pt+2] [Oxaliplatin] (10000 nM) | 124% |

The compounds below were run on MFM-223 in the same assay as above. Conditions: incubation time: 72 h.
Outline: as §1

| Compound | normalised response |
| --- | --- |
| CCN(CC)CCCC(C)Nc1c2ccc(Cl)cc2nc2ccc(OC)cc12 (stereo not drawn) [Mepacrine] (500 nM) | 96.9% |
| C=CC(=O)Nc1cc2c(Nc3ccc(F)c(Cl)c3)ncnc2cc1OCCCN1CCOCC1 [Canertinib] (100 nM) | 99.3% |
| Cc1ccc(-c2cc(C(F)(F)F)nn2-c2ccc(S(N)(=O)=O)cc2)cc1 [Celecoxib] (100 nM) | 98.7% |
| C=CCc1cccc(/C=N/NC(=O)CN2CCN(Cc3ccccc3)CC2)c1O [PAC-1] (100 nM) | 98.7% |
